Converted amounts (≈) assume the structure as drawn.
Key:
[1] = system: ANKA strain of Plasmodium berghei; test: single dose ED50/ED90/ED99 determinations in infected mice; format: in vivo; conditions: single dose po in SSV, mice, percent reduction in parasitemia on day three post-infection
Description: In the single dose ED50/ED90/ED99 determinations, Moro SPF or NMRI mice (group of three) infected with the ANKA strain of Plasmodium berghei were treated on day one post-infection. […] The SSV consists of 0.5% w/v CMC, 0.5% v/v benzyl alcohol, 0.4% v/v Tween 80, and 0.9% w/v sodium chloride in water. Antimalarial activity was measured by percent reduction in parasitemia on day three post-infection. The ED50/ED90 values were calculated by nonlinear fitting.

[2] = system: Schistosoma mansoni adult schistosomes (49-day-old); test: effect on adult schistosomes (49-day-old) in mice; format: in vivo; conditions: for % reduction of adult worms growth at day 49 after per os application of 400 mg/kg, TWR (%) / adult worms at day 49, per os 400 mg/kg, DEAD WORM (%): single 400 mg/kg per os
Description: Mice were infected with 100 Schistosoma mansoni cercariae […]. Each group was treated per os with OZ compounds at single doses of 200, 400, and 600 mg/kg. […] All groups were killed 4 weeks after treatment and the liver and intestine were removed and separated. The liver and intestine were compressed and alive male and female worms could be seen and counted.

[3] = system: Schistosoma mansoni 21-day-old schistosomules; test: effect on 21-day-old schistosomules in mice; format: in vivo; conditions: single 200 mg/kg per os, female mice
Description: All groups were killed 4 weeks after treatment and the liver and intestine were removed and separated. The liver and intestine were compressed and alive male and female worms could be seen and counted. The effect of the compounds was evaluated by mean total and female worm burden.

[4] = system: ANKA strain of P. berghei; test: single dose STI in vivo screen in infected mice; set-up: species or system Plasmodium berghei; conditions: for Activity (%) po / Activity (%) sc / Activity (%) SSVpo: percent reduction in parasitemia day 3 post-infection, mice; for Activity (%) po / Survival (days) po: single 10 mg/kg po in 3% ethanol and 7% Tween 80; for Activity (%) sc / Survival (days) sc: single 10 mg/kg sc in 3% ethanol and 7% Tween 80; for Activity (%) SSVpo: single po dose in standard suspending vehicle (SSV); for Survival (days) po / Survival (days) sc / Survival (days) SSVpo: untreated control 5.6 ± 0.3; for Survival (days) SSVpo: single po dose in SSV
Method in brief: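 Groups of 3-5 Moro SPF or NMRI mice infected with the ANKA strain of P. berghei received a single dose of trioxolane on day one post-infection. The compound was given in 3% ethanol and 7% Tween 80 or in SSV (0.5% w/v CMC, 0.5% v/v benzyl alcohol, 0.4% v/v Tween 80, 0.9% w/v sodium chloride in water). Antimalarial activity was scored as percent reduction in parasitemia on day three and as survival time versus untreated controls. Survival to day 30 counted as cure.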

[5] = system: P. falciparum NF54 strain (sensitive to standard antimalarials); test: semiautomated microdilution assay, [3H]-hypoxanthine incorporation, NF54 strain; format: cell-based, Plasmodium falciparum; conditions: NF54 strain, 72 h incubation; for IC50: Plasmodium falciparum, read-out: IC50 (ng/ml) NF54
Method in brief: (§1)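 Compounds were tested against intraerythrocytic parasites taken from asynchronous stock cultures, using semiautomated microdilution. IC50 values were estimated by logit regression analysis.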

[6] = system: P. falciparum K1 strain (Thailand resistant to chloroquine); test: semiautomated microdilution assay, [3H]-hypoxanthine incorporation, K1 strain; format: cell-based, Plasmodium falciparum; conditions: K1 strain, 72 h incubation; for IC50: Plasmodium falciparum, read-out: IC50 (ng/ml) K1
Method in brief: as §1

P. berghei ANKA strain = test: treatment: 3x3 mg/kg and 3x1 mg/kg po divided doses in infected mice; format: in vivo, Plasmodium berghei; conditions: SSV
Description: Moro NMRI male mice (Fü Albino specific pathogen free) weighing 18±2 g were infected intravenously (i.v.) with 2×10^7 P. berghei ANKA strain-infected erythrocytes from donor mice on day 0 of the experiment. From donor mice with circa 30% parasitemia, heparinized blood was taken and diluted in physiological saline to 10^8 parasitized erythrocytes per ml. An aliquot (0.2 ml) of this suspension was injected i.v. into experimental and control groups of mice. In untreated control mice, parasitemia rose regularly to 40 to 50% by day 3 post-infection and 70 to 80% by day 4 post-infection. The mice died between days 5 and 7 post-infection. Throughout the experiments, mice were kept in groups of three or five animals in Makrolon type II cages in an air-conditioned animal room at 22 to 23° C. A diet with p-aminobenzoic acid (PABA) of 45 mg (NAFAG FUTTER© food N^o 9009 PAB-45) per kg of body weight, and tap water is available ad libitum.
OZ compounds were prepared at an appropriate concentration, either as a solution or a suspension containing SSV (0.5% w/v CMC, 0.5% v/v benzyl alcohol, 0.4% v/v Tween 80, and 0.9% w/v sodium chloride in water). They were administered per os (p.o.) in a total volume of 0.01 ml per gram of mouse. The activity of the compound was determined by a variety of methods outlined in subsequent sections. Survival time was also recorded, and survival to day 30 post-infection was considered to be a cure.
The second experiment consists of administration of divided 3×3 mg/kg and 3×1 mg/kg po doses administered on days 1, 2, and 3 post-infection. On day 4 post-infection, blood smears of all animals were prepared and stained with Giemsa. Parasitemia was determined microscopically, and the difference between the mean value of the control group (taken as 100%) and those of the experimental groups was calculated and expressed as percent reduction. Compounds were administered orally in the SSV vehicle.

SMILES	ED50 [1] [mg/kg]	ED90 [1] [mg/kg]	ED99 [1] [mg/kg]	Activity (%) po [4] [%]	Activity (%) sc [4] [%]	Activity (%) SSVpo [4] [%]	Survival (days) po [4] [days]	Survival (days) sc [4] [days]	Survival (days) SSVpo [4] [days]	IC50 (ng/ml) NF54 [5]	IC50 (ng/ml) K1 [6]	also measured
C[C@H]1[C@@H](OCc2ccc(C(=O)O)cc2)O[C@@H]2O[C@@]3(C)CC[C@H]4[C@H](C)CC[C@@H]1[C@@]24OO3 [Artelinate]	4.8	10	18									
CC1(C)COC2(CCC3(CC2)OOC2(O3)C3CC4CC(C3)CC2C4)OC1 (centres unmarked) [OZ11]		6.2	8.2	99.99	100	98	11.4	18	7.4			% reduction of adult worms growth at day 49 after per os application of 400 mg/kg, TWR (%) [2]: 16%; adult worms at day 49, per os 400 mg/kg, DEAD WORM (%) [2]: 4%; % reduction of schistosomule growth at day 21 after per os application of 200 mg/kg, FWR (%) [3]: 84%; % reduction of schistosomule growth at day 21 after per os application of 200 mg/kg, TWR (%) [3]: 85%
c1ccc(C2CCC3(CC2)OOC2(O3)C3CC4CC(C3)CC2C4)cc1 (centres unmarked) [OZ27]		5.7	9.9	99.97	99.92	96	12.6	17.1	8.0			IC50 [5]: 4.8 ng/mL (≈ 14.1 nM); IC50 [6]: 2.2 ng/mL (≈ 6.46 nM)
O=C(O)CC1CCC2(CC1)OOC1(O2)C2CC3CC(C2)CC1C3 (centres unmarked) [OZ78]		9.1	17	94	79	97	8.7	6.7	7.0	42 ng/mL (≈ 130 nM)	24 ng/mL (≈ 74.4 nM)	% reduction of adult worms growth at day 49 after per os application of 200 mg/kg, TWR (%) ([2]; single 200 mg/kg per os): 24%; adult worms at day 49, per os 200 mg/kg, DEAD WORM (%) ([2]; single 200 mg/kg per os): 29%; % reduction of adult worms growth at day 49 after per os application of 400 mg/kg, TWR (%) [2]: 0%; adult worms at day 49, per os 400 mg/kg, DEAD WORM (%) [2]: 17%; % reduction of adult worms growth at day 49 after per os application of 600 mg/kg, TWR (%) ([2]; single 600 mg/kg per os): 0%; adult worms at day 49, per os 600 mg/kg, DEAD WORM (%) ([2]; single 600 mg/kg per os): 14%; % reduction of schistosomule growth at day 21 after per os application of 200 mg/kg, FWR (%) [3]: 87%; % reduction of schistosomule growth at day 21 after per os application of 200 mg/kg, TWR (%) [3]: 82%
COCC(=O)N1CCC2(CC1)OOC1(O2)C2CC3CC(C2)CC1C3 (centres unmarked) [OZ113]	3.6	9.0	19	92	89	96	7.3	7.3	8.0	0.20 ng/mL (≈ 0.593 nM)	0.95 ng/mL (≈ 2.82 nM)	
O=C(NO)[C@H]1CC[C@@]2(CC1)OOC1(O2)C2CC3CC(C2)CC1C3 (some centres unmarked) [OZ127]	2.5	7.6	19	95	97	98	7.0	7.7	7.7	1.3 ng/mL (≈ 4.02 nM)	0.61 ng/mL (≈ 1.89 nM)	
c1ncn(C[C@H]2CC[C@]3(CC2)OOC2(O3)C3CC4CC(C3)CC2C4)n1 (some centres unmarked) [OZ177]		3.7	5.8						12.7			IC50 [5]: 1.7 ng/mL (≈ 4.92 nM); IC50 [6]: 0.9 ng/mL (≈ 2.61 nM)
c1cn(C[C@H]2CC[C@]3(CC2)OOC2(O3)C3CC4CC(C3)CC2C4)cn1 (some centres unmarked) [OZ179]	1.4	3.3	6.6			99.78			10.3	1.1 ng/mL (≈ 3.19 nM)	1.3 ng/mL (≈ 3.77 nM)	Activity (%) po ([4]; 10 mg/kg): 99.91%; Activity (%) sc ([4]; 10 mg/kg): 99.91%; Survival (days) po ([4]; 10 mg/kg): 11.3 days; Survival (days) sc ([4]; 10 mg/kg): 11.3 days
NC[C@H]1CC[C@]2(CC1)OOC1(O2)C2CC3CC(C2)CC1C3 (some centres unmarked) [OZ181]	0.63	1.8	4.0		100	99.91			10.0			Activity (%) po ([4]; 10 mg/kg): 99.98%; Survival (days) po ([4]; 10 mg/kg): 9.0 days; Survival (days) sc ([4]; 10 mg/kg): 11.0 days
c1cn(CC[C@H]2CC[C@]3(CC2)OOC2(O3)C3CC4CC(C3)CC2C4)cn1 (some centres unmarked) [OZ219]	1.6	3.0	5.2	99.89	99.91	99.82	8.7	9.3	8.0	1.6 ng/mL (≈ 4.46 nM)	0.85 ng/mL (≈ 2.37 nM)	
CN1CCN(C(=O)C[C@H]2CC[C@]3(CC2)OOC2(O3)C3CC4CC(C3)CC2C4)CC1 (some centres unmarked) [OZ227]	2.3	4.0	6.2	99.68	99.84	99.90	8.3	10.7	9.3	0.20/0.20 ng/ml	0.20/0.20 ng/ml	
c1ncn(C[C@H]2CC[C@]3(CC2)OOC2(O3)C3CC4CC(C3)CC2C4)n1 (some centres unmarked) [OZ235]	4.0	7.1	11	99.92	97	99.97	8.7	8.0	9.0	2.0 ng/mL (≈ 5.79 nM)	1.0 ng/mL (≈ 2.89 nM)	
O=C(NC[C@H]1CC[C@]2(CC1)OO[C@]1(O2)C2CC3CC(C2)CC1C3)N1CCNCC1 [OZ329]										0.68 ng/mL (≈ 1.68 nM)	0.43 ng/mL (≈ 1.06 nM)	% reduction of adult worms growth at day 49 after per os application of 400 mg/kg, TWR (%) [2]: 15%; adult worms at day 49, per os 400 mg/kg, DEAD WORM (%) [2]: 6%; activity (percent reduction of parasitemia) (P. berghei ANKA strain; 3×1 mg/kg po on days 1, 2, 3 post-infection): greater than 99%; infected mice cured (P. berghei ANKA strain; 3×3 mg/kg po on days 1, 2, 3 post-infection): ⅖; % reduction of schistosomule growth at day 21 after per os application of 200 mg/kg, FWR (%) [3]: 90%; % reduction of schistosomule growth at day 21 after per os application of 200 mg/kg, TWR (%) [3]: 90%

Reference: US6906205B2, “Spiro and dispiro 1,2,4-trioxolane antimalarials” (Medicines for Malaria Venture MMV, priority 2002, dated 2005)
